Consider 10 compounds from patent publication US5110825A, “Benzofuran derivative” (Shionogi & Co., Ltd., priority 1989, dated 1992).

The assay addresses T1, HMG-CoA reductase (Rattus norvegicus, UniProt P51639).
T1 sequence (P51639 1-887): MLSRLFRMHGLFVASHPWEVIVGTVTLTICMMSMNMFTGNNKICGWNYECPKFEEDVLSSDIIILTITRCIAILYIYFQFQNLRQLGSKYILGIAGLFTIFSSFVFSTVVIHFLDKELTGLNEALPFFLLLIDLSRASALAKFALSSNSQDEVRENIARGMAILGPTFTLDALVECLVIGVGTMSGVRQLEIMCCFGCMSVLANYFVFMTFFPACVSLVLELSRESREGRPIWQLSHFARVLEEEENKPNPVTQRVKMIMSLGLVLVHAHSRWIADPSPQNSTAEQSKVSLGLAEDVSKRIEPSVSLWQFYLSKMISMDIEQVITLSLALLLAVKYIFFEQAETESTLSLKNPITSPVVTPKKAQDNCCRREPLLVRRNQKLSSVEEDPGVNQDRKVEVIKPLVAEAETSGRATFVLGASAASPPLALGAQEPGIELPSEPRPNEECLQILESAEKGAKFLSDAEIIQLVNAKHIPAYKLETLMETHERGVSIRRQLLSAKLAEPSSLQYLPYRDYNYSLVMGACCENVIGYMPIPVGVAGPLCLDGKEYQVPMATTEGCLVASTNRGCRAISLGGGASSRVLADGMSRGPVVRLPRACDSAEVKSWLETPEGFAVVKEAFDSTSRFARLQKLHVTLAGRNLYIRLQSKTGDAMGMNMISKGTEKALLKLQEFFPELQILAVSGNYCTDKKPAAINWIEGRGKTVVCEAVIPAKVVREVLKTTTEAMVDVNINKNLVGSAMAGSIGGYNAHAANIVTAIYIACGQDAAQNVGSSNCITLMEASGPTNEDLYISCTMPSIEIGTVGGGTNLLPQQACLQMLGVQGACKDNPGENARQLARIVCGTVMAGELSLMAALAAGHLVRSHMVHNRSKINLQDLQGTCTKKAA
The assay is described as follows: HMG-CoA reductase inhibitory activity (rat liver microsome). It counts as biochemical, rat (Sprague-Dawley). To be noted: [3-14C]HMG-CoA, 37° C., 30 minutes.
As to `CC(C)c1c(/C=C/[C@@H](O)C[C@@H](O)CC(=O)O)oc2c(-c3ccc(F)cc3)cccc12` (relative stereo) [Ia-5, Sodium (3R*,5S*)-(E)-7-[3-isopropyl-7-(4-fluorophenylbenzofuran-2-yl]-3,5-dihydroxy-6-heptenate], the IC50 came to 110 nM.

`CC(C)c1cccc2c(-c3ccc(F)cc3)c(/C=C/[C@@H](O)C[C@@H](O)CC(=O)O)oc12` (relative stereo) [Ia-2, Sodium (3R*,5S*)-(E)-7-[3-(4-fluorophenyl)-7-isopropylbenzofuran-2-yl]-3,5-dihydroxy-6-heptenate] came in with an IC50 of 900 nM.

On to `Cc1ccc(C(C)C)c2c(/C=C/[C@@H](O)C[C@@H](O)CC(=O)O)c(-c3ccc(F)cc3)oc12` (relative stereo), for which 270 nM corresponded to half-maximal inhibition (IC50).

Take `CNc1ccc(-c2ccc(F)cc2)c2c(/C=C/[C@@H](O)C[C@@H](O)CC(=O)O)c(C(C)C)oc12` (relative stereo) [Ia-15, Sodium (3R*,5S*)-(E)-7-[4-(4-fluorophenyl)-2-isopropyl-7-methylamino-3-yl]-3,5-dihydroxy-6-heptenate]: the IC50 was found to be 63 nM.

Compound `Cc1cc(-c2ccc3occ(C(C)C)c3c2/C=C/[C@@H](O)C[C@@H](O)CC(=O)O)ccc1F` (relative stereo) displayed a 50% inhibitory concentration (IC50) of 32 nM. This IC50 is about 2-fold lower than that of the compound before.

`CC(C)c1oc2cccc(-c3ccc(F)cc3)c2c1/C=C/[C@@H](O)C[C@@H](O)CC(=O)O`: 740 nM corresponded to half-maximal inhibition (IC50).

In the case of `Cn1nnnc1C(/C=C/[C@@H](O)C[C@@H](O)CC(=O)O)=C(\c1ccc(F)cc1)c1cc2ccccc2o1` (relative stereo), half-maximal inhibition (IC50) required 90 nM.

Turning to `CC(=O)N(C)c1ccc(-c2ccc(F)cc2)c2c(/C=C/[C@@H](O)C[C@@H](O)CC(=O)O)c(C(C)C)oc12` (relative stereo) [Ia-14, Sodium (3R*,5S*)-(E)-7-[7-(N-acetyl-N-methylamino)-4-(4-fluorophenyl)-2-isopropyl-3-yl]-3,5-dihydroxy-6-heptenate], the half-maximal inhibitory concentration (IC50) turned out to be 20 nM.

Compound `Cc1cc(-c2c(CC[C@@H](O)C[C@@H](O)CC(=O)O)oc3c(C(C)C)cccc23)ccc1F` (relative stereo) [Ia-11] registered an IC50 of 220 nM.

For `Cn1nnnc1C(/C=C/[C@@H](O)C[C@@H](O)CC(=O)O)=C(/c1ccc(F)cc1)c1cc2ccccc2o1` (relative stereo), the IC50 worked out at 90 nM.

One may read the IC50 as the concentration that gives 50% inhibition. The low end stands for greater potency in that assay, the high end for weaker potency in that assay.
